Reference: patent publication US12421243B2, “Pharmaceutically effective compounds inhibiting selectively the myosin 2 isoforms” (PRINTNET KERESKEDELMI ÉS SZOLGÁLTATÓ KFT., priority 2018, dated 2025)

Assays:
[1] = biological target: recombinant Dictyostelium miozin (Dictyostelium) (Dictyostelium discoideum, UniProt P08799); assay: actomyosin steady state ATPase measurement, Dictyostelium myosin; format: biochemical; conditions: for IC50: concentration required for semi-maximal inhibition of ATPase, read-out: IC50 (μM) Dicty; for % inhibition. complete Dicty: maximum value of inhibition of ATPase activity; for inhibition at 5 µM: read-out: % inhibition at 5 μM (or 10 μM if racemate) Dicty; for inhibition at 50 µM: read-out: % inhibition at 50 μM (or 100 μM if racemate) Dicty
Chain of recombinant Dictyostelium miozin (Dictyostelium) (P08799 whole entry): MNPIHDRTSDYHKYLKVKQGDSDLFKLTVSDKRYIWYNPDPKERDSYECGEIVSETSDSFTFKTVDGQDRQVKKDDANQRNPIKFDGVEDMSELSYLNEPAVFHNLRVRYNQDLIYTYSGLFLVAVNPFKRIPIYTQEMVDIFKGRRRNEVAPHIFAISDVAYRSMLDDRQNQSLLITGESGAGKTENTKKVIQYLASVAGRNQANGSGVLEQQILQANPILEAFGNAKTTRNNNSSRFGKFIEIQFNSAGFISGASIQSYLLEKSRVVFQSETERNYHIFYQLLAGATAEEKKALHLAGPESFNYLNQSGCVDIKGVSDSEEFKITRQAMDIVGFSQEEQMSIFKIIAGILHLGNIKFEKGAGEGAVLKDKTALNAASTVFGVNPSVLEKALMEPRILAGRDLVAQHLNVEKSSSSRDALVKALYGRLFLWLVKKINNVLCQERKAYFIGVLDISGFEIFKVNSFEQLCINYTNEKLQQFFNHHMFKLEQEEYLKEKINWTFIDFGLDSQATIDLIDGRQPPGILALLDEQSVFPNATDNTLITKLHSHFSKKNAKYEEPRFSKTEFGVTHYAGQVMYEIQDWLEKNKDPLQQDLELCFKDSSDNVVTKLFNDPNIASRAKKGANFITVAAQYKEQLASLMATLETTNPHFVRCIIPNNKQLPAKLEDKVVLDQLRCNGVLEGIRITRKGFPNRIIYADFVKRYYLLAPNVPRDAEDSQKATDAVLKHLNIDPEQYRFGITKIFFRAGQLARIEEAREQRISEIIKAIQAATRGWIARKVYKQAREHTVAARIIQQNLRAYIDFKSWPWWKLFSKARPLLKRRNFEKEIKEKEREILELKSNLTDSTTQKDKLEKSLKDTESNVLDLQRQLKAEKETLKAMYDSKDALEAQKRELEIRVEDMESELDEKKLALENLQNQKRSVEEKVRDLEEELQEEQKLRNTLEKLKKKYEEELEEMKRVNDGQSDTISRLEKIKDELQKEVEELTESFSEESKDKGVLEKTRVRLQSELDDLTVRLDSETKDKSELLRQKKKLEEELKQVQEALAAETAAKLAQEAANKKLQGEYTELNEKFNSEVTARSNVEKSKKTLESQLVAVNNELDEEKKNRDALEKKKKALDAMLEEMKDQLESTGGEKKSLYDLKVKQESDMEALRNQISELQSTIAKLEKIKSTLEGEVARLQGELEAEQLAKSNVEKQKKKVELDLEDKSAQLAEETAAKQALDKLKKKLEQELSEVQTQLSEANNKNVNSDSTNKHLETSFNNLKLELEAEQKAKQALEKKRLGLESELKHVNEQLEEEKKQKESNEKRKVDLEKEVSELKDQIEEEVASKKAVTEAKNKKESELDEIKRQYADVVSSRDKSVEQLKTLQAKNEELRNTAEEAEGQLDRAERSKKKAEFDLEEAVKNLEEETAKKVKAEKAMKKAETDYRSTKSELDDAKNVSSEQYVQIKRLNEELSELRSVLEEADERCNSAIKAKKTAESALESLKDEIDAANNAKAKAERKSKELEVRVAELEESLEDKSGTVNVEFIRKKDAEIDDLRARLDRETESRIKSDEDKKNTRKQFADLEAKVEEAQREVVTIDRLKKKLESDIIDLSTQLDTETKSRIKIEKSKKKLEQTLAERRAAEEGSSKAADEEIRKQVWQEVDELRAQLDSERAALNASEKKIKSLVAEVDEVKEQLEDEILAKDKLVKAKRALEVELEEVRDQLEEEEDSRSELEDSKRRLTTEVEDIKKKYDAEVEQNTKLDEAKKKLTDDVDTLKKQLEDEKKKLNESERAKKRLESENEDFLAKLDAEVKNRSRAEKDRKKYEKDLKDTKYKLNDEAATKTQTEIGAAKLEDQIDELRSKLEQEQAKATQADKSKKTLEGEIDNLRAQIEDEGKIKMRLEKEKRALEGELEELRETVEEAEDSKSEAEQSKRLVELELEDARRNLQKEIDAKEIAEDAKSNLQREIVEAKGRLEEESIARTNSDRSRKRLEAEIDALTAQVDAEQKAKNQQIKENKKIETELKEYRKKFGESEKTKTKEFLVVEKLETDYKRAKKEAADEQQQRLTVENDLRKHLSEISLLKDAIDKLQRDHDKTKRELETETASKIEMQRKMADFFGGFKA
From the text: (§1) […]; (ii) the concentration required for semi-maximal inhibition.

[2] = biological target: recombinant human non-muscle myosin 2 NM2C (Homo sapiens, UniProt Q7Z406); assay: actomyosin steady state ATPase measurement, NM2C; format: biochemical; conditions: for IC50: concentration required for semi-maximal inhibition of ATPase; for % inhibition. complete NM2C: maximum value of inhibition of ATPase activity; for inhibition at 5 µM: read-out: % inhibition at 5 μM (or 10 μM if racemate) NM2C, 5 μM (10 μM if racemate); for inhibition at 5 µM / inhibition at 50 µM: ATPase activity; for inhibition at 50 µM: read-out: % inhibition at 50 μM (or 100 μM if racemate) NM2C, 50 μM (100 μM if racemate); for Inhibition (%) NM2C: maximum inhibition, compounds in IC50 range 1-5 μM
Chain of recombinant human non-muscle myosin 2 NM2C (Q7Z406 whole entry): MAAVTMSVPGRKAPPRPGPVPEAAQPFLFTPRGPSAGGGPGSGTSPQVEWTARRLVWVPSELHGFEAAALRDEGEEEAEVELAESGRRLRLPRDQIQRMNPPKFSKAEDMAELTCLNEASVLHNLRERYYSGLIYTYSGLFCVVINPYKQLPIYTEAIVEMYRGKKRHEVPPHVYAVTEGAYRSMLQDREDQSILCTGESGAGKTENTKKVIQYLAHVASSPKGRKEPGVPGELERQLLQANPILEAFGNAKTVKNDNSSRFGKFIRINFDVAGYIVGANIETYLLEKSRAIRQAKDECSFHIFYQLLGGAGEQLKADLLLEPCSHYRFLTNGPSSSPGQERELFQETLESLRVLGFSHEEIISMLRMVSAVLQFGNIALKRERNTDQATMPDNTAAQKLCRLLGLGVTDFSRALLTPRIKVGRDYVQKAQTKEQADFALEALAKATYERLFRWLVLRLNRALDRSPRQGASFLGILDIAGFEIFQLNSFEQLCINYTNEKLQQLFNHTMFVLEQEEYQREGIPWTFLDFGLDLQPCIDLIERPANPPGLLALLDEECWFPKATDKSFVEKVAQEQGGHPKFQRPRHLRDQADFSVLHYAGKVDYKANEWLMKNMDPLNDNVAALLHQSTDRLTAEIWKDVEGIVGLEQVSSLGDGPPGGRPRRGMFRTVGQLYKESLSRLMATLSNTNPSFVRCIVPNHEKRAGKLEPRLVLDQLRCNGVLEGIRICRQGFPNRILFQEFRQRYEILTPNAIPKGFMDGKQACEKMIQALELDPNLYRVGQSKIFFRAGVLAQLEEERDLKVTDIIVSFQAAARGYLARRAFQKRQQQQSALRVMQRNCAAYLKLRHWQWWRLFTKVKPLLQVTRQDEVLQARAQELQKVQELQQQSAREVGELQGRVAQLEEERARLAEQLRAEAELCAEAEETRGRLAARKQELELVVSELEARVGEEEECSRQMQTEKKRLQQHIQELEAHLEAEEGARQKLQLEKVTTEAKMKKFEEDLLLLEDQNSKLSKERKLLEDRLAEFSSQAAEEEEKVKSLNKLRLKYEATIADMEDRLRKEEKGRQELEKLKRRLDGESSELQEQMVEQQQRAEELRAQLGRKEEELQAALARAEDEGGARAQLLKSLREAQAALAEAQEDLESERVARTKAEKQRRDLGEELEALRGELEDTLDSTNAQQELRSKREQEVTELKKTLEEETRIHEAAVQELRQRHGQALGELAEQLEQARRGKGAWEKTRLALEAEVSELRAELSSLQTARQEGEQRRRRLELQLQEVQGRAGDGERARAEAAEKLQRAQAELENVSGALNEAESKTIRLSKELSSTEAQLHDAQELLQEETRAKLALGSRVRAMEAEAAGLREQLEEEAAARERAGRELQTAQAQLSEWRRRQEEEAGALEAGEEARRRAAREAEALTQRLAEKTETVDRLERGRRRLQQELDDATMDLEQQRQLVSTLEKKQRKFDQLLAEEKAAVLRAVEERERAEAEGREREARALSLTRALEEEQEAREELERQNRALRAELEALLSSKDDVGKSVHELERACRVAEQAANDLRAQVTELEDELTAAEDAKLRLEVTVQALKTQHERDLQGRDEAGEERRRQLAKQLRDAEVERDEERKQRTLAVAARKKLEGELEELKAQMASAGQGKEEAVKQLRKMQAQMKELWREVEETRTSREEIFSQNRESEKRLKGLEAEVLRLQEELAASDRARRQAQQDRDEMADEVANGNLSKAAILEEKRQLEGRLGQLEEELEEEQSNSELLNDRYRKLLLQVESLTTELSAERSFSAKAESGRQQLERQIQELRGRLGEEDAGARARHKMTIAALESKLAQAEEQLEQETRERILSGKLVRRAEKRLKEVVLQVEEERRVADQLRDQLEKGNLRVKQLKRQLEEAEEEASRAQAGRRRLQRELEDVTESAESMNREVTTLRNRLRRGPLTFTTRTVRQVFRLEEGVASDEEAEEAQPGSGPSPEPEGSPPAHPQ
From the text: as §1

[3] = biological target: T1, isolated porcine cardiac ventricular myocardium (cardiac) (Sus scrofa, UniProt P79293); assay: actomyosin steady state ATPase measurement, cardiac myosin; format: biochemical; conditions: for IC50: concentration required for semi-maximal inhibition of ATPase; for % inhibition. complete cardiac: maximum value of inhibition of ATPase activity; for inhibition at 5 µM: read-out: % inhibition at 5 μM (or 10 μM if racemate) cardiac, 5 μM (10 μM if racemate); for inhibition at 5 µM / inhibition at 50 µM: ATPase activity; for inhibition at 50 µM: read-out: % inhibition at 50 μM (or 100 μM if racemate) cardiac, 50 μM (100 μM if racemate)
T1 construct: isolated porcine cardiac ventricular myocardium (cardiac); from tissue; host or cells: porcine cardiac ventricle
From the text: as §1

[4] = system: isolated rabbit skeletal muscle myosin (skeletal); assay: actomyosin steady state ATPase measurement, skeletal muscle myosin; format: biochemical; conditions: for % inhibition at 5 μM (or 10 μM if racemate) Skeletal: 5 μM (10 μM if racemate); for % inhibition at 5 μM (or 10 μM if racemate) Skeletal / % inhibition at 50 μM (or 100 μM if racemate) Skeletal: ATPase activity; for % inhibition at 50 μM (or 100 μM if racemate) Skeletal: 50 μM (100 μM if racemate); for IC50: concentration required for semi-maximal inhibition of ATPase; for % inhibition. complete Skeletal: maximum value of inhibition of ATPase activity
From the text: as §1

[5] = biological target: isolated smooth muscle myosin (UniProt P10587); format: biochemical, chamois; conditions: concentration required for semi-maximal inhibition of ATPase
From the text: (ii) the concentration required for semi-maximal inhibition.

[6] = biological target: isolated smooth muscle myosin (UniProt P10587); format: biochemical, chamois; conditions: for % inhibition at 5 μM (or 10 μM if racemate) Smooth: 5 μM (10 μM if racemate); for % inhibition at 5 μM (or 10 μM if racemate) Smooth / % inhibition at 50 μM (or 100 μM if racemate) Smooth: ATPase activity; for % inhibition at 50 μM (or 100 μM if racemate) Smooth: 50 μM (100 μM if racemate); for Inhibition (%) smooth: maximum inhibition, compounds in IC50 range 1-5 μM; for % inhibition. complete Smooth: maximum value of inhibition of ATPase activity

SMILES	IC50 [1] [µM]	% inhibition. complete Dicty [1] [%]	inhibition at 5 µM [1] [%]	inhibition at 50 µM [1] [%]	IC50 [2] [µM]	% inhibition. complete NM2C [2] [%]	inhibition at 5 µM [2] [%]	inhibition at 50 µM [2] [%]	IC50 [3] [µM]	% inhibition. complete cardiac [3] [%]	inhibition at 5 µM [3] [%]	inhibition at 50 µM [3] [%]	% inhibition at 5 μM (or 10 μM if racemate) Skeletal [4] [%]	% inhibition at 50 μM (or 100 μM if racemate) Skeletal [4] [%]	IC50 [4] [µM]	% inhibition. complete Skeletal [4] [%]	IC50 [5] [µM]	% inhibition at 5 μM (or 10 μM if racemate) Smooth [6] [%]	% inhibition at 50 μM (or 100 μM if racemate) Smooth [6] [%]	% inhibition. complete Smooth [6] [%]	also measured
N#CCc1ccc(N2CC[C@@]3(O)C(=O)c4ccsc4N=C23)cc1 [Compound 215, (9S)-2-(4-{9-Hydroxy-8-oxo-4-thia-2,12-diazatricyclo[7.3.0.0^3,7]dodeca-1,3(7),5-trien-12-yl}phenyl)acetonitrile]	12.1	78	23	63	19	77	16	56	5.6	94	42	84	80	96	1.1	98	2.3	31	45	47	Inhibition (%) smooth [6]: 47%
O=C1c2ccsc2N=C2N(c3ccc(CO)cc3)CC[C@@]12O [Compound 216, (9S)-9-Hydroxy-12-[4-(hydroxymethyl)phenyl]-4-thia-2,12-diazatricyclo[7.3.0.0^3,7]dodeca-1,3(7),5-trien-8-one]	13.3	74	20	58	23	75	13	51	2.4	89	58	85	74	95	1.6	98	8.3	17	39	46	Inhibition (%) skeletal ([4]; maximum inhibition, compounds in IC50 range 1-2 μM): 98%
COc1ccc(N2CCC3(O)C(=O)c4cc(C)sc4N=C23)cn1 (stereo not shown) [Compound 230, 9-Hydroxy-12-(6-methoxypyridin-3-yl)-5-methyl-4-thia-2,12-diazatricyclo[7.3.0.0^3,7]dodeca-1,3(7),5-trien-8-one]	8.1	100	36	90	2.3	93	61	89	1.9	96	68	93	85	92	0.43	93	3.6	56	96	100	Inhibition (%) NM2C [2]: 93%; Inhibition (%) smooth [6]: 100%
Cc1cc2c(s1)N=C1N(c3cccs3)CCC1(O)C2=O (stereo not shown) [Compound 229, 9-Hydroxy-5-methyl-12-(thiophen-2-yl)-4-thia-2,12-diazatricyclo[7.3.0.0^3,7]dodeca-1,3(7),5-trien-8-one]	1.4	97	74	95	1.1	100	78	98	1.4	93	54	87	87	96	0.61	97	3.4	54	87	93	Inhibition (%) smooth [6]: 93%
Cc1ccc(N2CC[C@@]3(O)C(=O)c4ccsc4N=C23)cc1 [Compound 233, (9S)-9-Hydroxy-12-(4-methylphenyl)-4-thia-2,12-diazatricyclo[7.3.0.0^3,7]dodeca-1,3(7),5-trien-8-one]	17	100	21	76	2.1	72	48	69	0.82	88	74	87	92	98	0.32	98	8.8	29	70	83	Inhibition (%) NM2C [2]: 72%
